Entries after “also recorded” stand apart in the source; their conditions may differ.

For data set [1], the system named is E. coli O157:H7 strain 86-24. More on the design: species or system piglets. As to conditions: in vivo.
For data set [2] the following is noted: in vivo.

With `O[C@H]1[C@H]2[C@H](O)CCCN2C[C@H]1O` [swainsonine], in the data set with Vero cells, the “lowest concentration at which a protective effect from co-incubation was observed” value worked out at 0.012 μg/well and the “toxic effects in swainsonine control wells” value was “No toxic effects were observed”. In data set [1], the “progression and severity of disease / outcome at 68 h post challenge” value was “progression of disease was less rapid and for all except one, much less severe; also recorded: Two of the swainsonine-treated pigs were recovering from the disease by 68 h post challenge”. Also, the adverse effects entry in data set [2] was “no adverse effects”.
